Reference: patent publication US20170226121A1, “MODULATORS OF VIRUS ASSEMBLY AS ANTIVIRAL AGENTS” (Indiana University Research and Technology Corporation, priority 2011, published 2017)
Several values for one entry are separate records, joined by “and”; a condition that tells them apart may be missing. Equal entries are not always repeated. Where two headings read alike, the source gives them in different places.

Columns and labels:
[1] = target: labeled HBV core protein dimer, Cp150Bo (Hepatitis B virus genotype D subtype adw, UniProt P03147, C107A/C48A/C61A/R150C); assay: Fluorescence quenching assay of HBV assembly; assay type: biochemical; settings: single time point 24 hr after assembly initiated with NaCl, about 30±15% assembly without stimulation
HepG2 = assay: in vitro
Procedure: (§1) Antiviral activity was measured using an inducible HBV expression system, AD38 cells. (Ladner, S. K. et al., Antimicrob Agents Chemother 41, 1715-20 (1997)). Initial experiments tested the activity of 10 μM HAP (percentage viral assembly at 24 hour). For active molecules, effective concentrations were determined for suppression of HBV production by 50% and by 90%; this value is reported in μM. Compound toxicity was tested in the parent cell line, HepG2. […] All of these experiments were performed blind, in the laboratory of Raymond Schinazi (Emory University).

[2] = test system: HBV production in HepAD38 (AD38) cells; assay: Antiviral activity, inducible HBV expression system, AD38 cells; assay type: cell-based, hepatitis B virus; settings: for EC90: suppression of HBV production by 90%
Procedure: Antiviral activity was measured using an inducible HBV expression system, AD38 cells. […] Initial experiments tested the activity of 10 μM HAP (percentage viral assembly at 24 hour). For active molecules, effective concentrations were determined for suppression of HBV production by 50% and by 90%; this value is reported in μM.

in vitro = settings: human
Procedure: as §1

[3] = value in parentheses in CC50 cell
[4] = suppression of HBV production by 50%, read-out: HepAD38 EC50

Chain of labeled HBV core protein dimer, Cp150Bo (P03147 1-150 C48A/C61A/C107A/R150C): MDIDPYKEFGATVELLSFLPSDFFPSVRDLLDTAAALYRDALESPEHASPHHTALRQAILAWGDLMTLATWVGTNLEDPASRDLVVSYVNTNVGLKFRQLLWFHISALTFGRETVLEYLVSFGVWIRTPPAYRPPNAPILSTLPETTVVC

Row | Compound | Assembly [1] [%] | also measured
1 | COC(=O)C1=C(CN2CCNC(=O)CC2)NC(c2ccccn2)=NC1c1ccc(F)cc1Cl (stereo not shown) [Compound B-120] | 96 | CC50 (HepG2): 32000 nM; (YI) ratio of CC50/EC50, therapeutic index (HepG2; [3]): 99; % Inhibition ([2]; compound at 10 μM): 99.87%; Δ-Ct-HBV ([2]; compound at 10 μM): 9.65; EC50 [2, 4]: 300 nM; EC90 [2]: 900 nM
2 | COC(=O)C1=C(CN2CCNCC2)NC(c2ccccn2)=NC1c1ccc(F)cc1Cl (stereo not shown) [Compound B-36] | 92 | –
3 | COC(=O)C1=C(CN2CCN(Cc3ccc(Br)cc3)CC2)NC(c2ccccn2)=NC1c1ccc(F)cc1Cl (stereo not shown) [Compound B-54] | 21 | –
4 | COC(=O)C1=C(C)NC(c2ccc(Br)cn2)=NC1c1ccc(F)cc1Cl (stereo not shown) [Compound B-17] | 87 | –
5 | CC1=C(C(=O)OCCN=[N+]=[N-])C(c2ccc(F)cc2Cl)N=C(c2ccncc2)N1 (stereo not shown) [Compound B-2] | 51 | –
6 | Nc1ccn([C@@H]2CS[C@H](CO)O2)c(=O)n1 [Compound 3TC, lamivudine, reference compound] | – | (YI) ratio of CC50/EC50, therapeutic index (HepG2): > 1000; CC50 (in vitro): > 100000 nM; inhibition at 10 µM ([2]; Hepatitis B virus, HePAD38, compound at 10 μM): 98.6%; EC50 ([2]; Hepatitis B virus, HePAD38, suppression of HBV production by 50%, read-out: HepAD38 EC50): 60 nM; EC90 ([2]; Hepatitis B virus, HePAD38): 200 nM; Δ-Ct-HBV ([2]; compound at 10 μM): 6.17
7 | CC1=C(C(=O)NCc2cn(CCN3C(=O)c4ccccc4C3=O)nn2)C(c2ccc(F)cc2Cl)N=C(c2ccncc2)N1 (stereo not shown) [Compound B-13] | 55 | –
8 | CCOC(=O)C1=C(CNCC23CC4CC(CC(C4)C2)C3)NC(c2ccccn2)=NC1c1ccc(F)cc1Cl (stereo not shown) [Compound B-58] | 42 | –
9 | COC(=O)C1=C(CCl)NC(c2ccccn2)=NC1c1ccc(F)cc1Cl (stereo not shown) [Compound B-25] | 54 | –
10 | COC(=O)C1=C(CN2CCN(Cc3ccccn3)CC2)NC(c2ccccn2)=NC1c1ccc(F)cc1Cl (stereo not shown) [Compound B-55] | 60 | –
11 | C#CCCCCC(=O)N1CCN(CC2=C(C(=O)OC)C(c3ccc(F)cc3Cl)N=C(c3ccccn3)N2)CC1 (stereo not shown) [Compound B75] | 134 | –
12 | COC(=O)C1=C(CN2CCC3=NN(C)C(=O)C3C2)NC(c2ccccn2)=NC1c1ccc(F)cc1Cl (stereo not shown) [Compound B69] | 54 | –
13 | COC(=O)C1=C(C)NC(=S)NC1c1ccc(F)cc1Cl (stereo not shown) [Compound B77] | 15 | –
14 | COC(=O)C1=C(C)NC(c2ccccn2)=NC1c1ccc(F)cc1Cl (stereo not shown) [Compound B-6] | 95 | –
15 | COC(=O)C1=C(CCl)NC(c2ccccn2)=NC1c1ccc(F)cc1Cl (stereo not shown) [HAP2, reference compound] | 99 | –
16 | C#CCNC(=O)c1ccc(C2=NC(c3ccc(F)cc3Cl)C(C(=O)OC)=C(C)N2)nc1 (stereo not shown) [Compound B-15] | 48 | –
17 | COC(=O)C1=C(C)NC(c2ccccc2)=NC1c1ccc(F)cc1Cl (stereo not shown) [Compound B-7] | 96 | –
18 | C#CCOCC1(COCC#C)COC2(CCN(CC3=C(C(=O)OC)C(c4ccc(F)cc4Cl)N=C(c4ccccn4)N3)CC2)OC1 (stereo not shown) [Compound B67] | 84 | –
19 | C#CCNC(=O)CCCC(=O)N1CCN(CC2=C(C(=O)OC)C(c3ccc(F)cc3Cl)N=C(c3ccccn3)N2)CC1 (stereo not shown) [Compound B71] | 133 | –
20 | C#CCCCCN1CCN(CC2=C(C(=O)OC)C(c3ccc(F)cc3Cl)N=C(c3ccccn3)N2)CC1 (stereo not shown) [Compound B-073] | 69 | CC50 (HepG2): 3700 nM; (YI) ratio of CC50/EC50, therapeutic index (HepG2; [3]): 0.5; % Inhibition ([2]; compound at 10 μM): 64.44%; Δ-Ct-HBV ([2]; compound at 10 μM): 1.5; EC50 [2, 4]: 7600 nM; EC90 [2]: > 10000 nM
21 | COC(=O)C1=C(CN2CCCCC2)NC(c2ccccn2)=NC1c1ccc(F)cc1Cl (stereo not shown) [Compound B-60] | 60 | –

Row | Compound | Assembly [1] [%] | also measured
22 | C#CC(O)(C#C)C1CCN(CC2=C(C(=O)OC)C(c3ccc(F)cc3Cl)N=C(c3ccccn3)N2)CC1 (stereo not shown) [Compound B-59] | 57 | –
23 | C#CCNC(=O)C1=C(C)NC(c2ccncc2)=NC1c1ccc(F)cc1Cl (stereo not shown) [Compound B-3] | 48 | –
24 | COC(=O)C1=C(CN2CCOCC2)NC(c2ccncc2)=NC1c1ccc(F)cc1Cl (stereo not shown) [Compound B76] | 36 | –
25 | CCOC(=O)C1=C(CNC23CC4CC(CC(C4)C2)C3)NC(c2ccccn2)=NC1c1ccc(F)cc1Cl (stereo not shown) [Compound B-57] | 49 | –
26 | CCOC(=O)C1=C(c2ccccn2)NC(c2ccccn2)=NC1c1ccc(F)cc1Cl (stereo not shown) [Compound B-23] | 47 | –
27 | C#CCOC(=O)C1=C(C)NC(c2ccccn2)=NC1c1ccc(F)cc1Cl (stereo not shown) [Compound B-12] | 83 | –
28 | CC1=C(C(=O)OCCC2CCC(CNS(=O)(=O)c3cccc4c(N(C)C)cccc34)C2)C(c2ccc(F)cc2Cl)N=C(c2ccncc2)N1 (stereo not shown) [Compound B-5] | 54 | –
29 | COC(=O)C1=C(CN2CCOCC2)NC(c2ccccn2)=NC1c1ccc(F)cc1Cl (stereo not shown) [Compound B-061] | – | Assembly ([1]; listed as B61): 99%; Assembly ([1]; listed as B-61): 51% and 80%; CC50 (HepG2): > 100000 nM; (YI) ratio of CC50/EC50, therapeutic index (HepG2; [3]): > 200; EC50 ([2]; given in place of % inhibition at 10 μM, read-out: EC50 (printed in % Inhibition column)): 550 nM; EC50 [2, 4]: 490 nM; EC90 [2]: 1000 nM
30 | COC(=O)C1=C(CN2CCN(CCOCCN=[N+]=[N-])CC2)NC(c2ccccn2)=NC1c1ccc(F)cc1Cl (stereo not shown) [Compound B72] | 29 | –
31 | CCOC(=O)C1=C(c2ccccc2)NC(c2ccccn2)=NC1c1ccc(F)cc1Cl (stereo not shown) [Compound B-22] | 77 | –
32 | COC(=O)C1=C(C(C)C)NC(c2ccccn2)=NC1c1ccc(F)cc1Cl (stereo not shown) [Compound B-24] | 70 | –
33 | COC(=O)C1=C(CN2CCN(CCOCCOCCN=[N+]=[N-])CC2)NC(c2ccccn2)=NC1c1ccc(F)cc1Cl (stereo not shown) [Compound B74] | 21 | –
34 | C#CCNCC1=C(C(=O)OC)C(c2ccc(F)cc2Cl)N=C(c2ccccn2)N1 (stereo not shown) [Compound B-34] | 65 | –
35 | COC(=O)C1=C(CNCCOCCOCCN=[N+]=[N-])NC(c2ccccn2)=NC1c1ccc(F)cc1Cl (stereo not shown) [Compound B68] | 49 | –
36 | COC(=O)C1=C(C)NC(c2nc3ccc(OC)cc3s2)=NC1c1ccc(F)cc1Cl (stereo not shown) [Compound B-4] | 56 | –
37 | COC(=O)C1=C(CN2CCN(CC3CCCCC3)CC2)NC(c2ccccn2)=NC1c1ccc(F)cc1Cl (stereo not shown) [Compound B-56] | 15 | –
38 | COC(=O)C1=C(C)NC(c2ccncc2)=NC1c1ccc(F)cc1Cl (stereo not shown) [Compound B-1] | 78 | –
39 | COC(=O)C1=C(CN2CCN(C(=O)CCCC(=O)NCCCN=[N+]=[N-])CC2)NC(c2ccccn2)=NC1c1ccc(F)cc1Cl (stereo not shown) [Compound B-070] | 123 | CC50 (HepG2): 8400 nM; (YI) ratio of CC50/EC50, therapeutic index (HepG2; [3]): 3.7; % Inhibition ([2]; compound at 10 μM): 99.88%; Δ-Ct-HBV ([2]; compound at 10 μM): 9.77; EC50 [2, 4]: 2300 nM; EC90 [2]: 5900 nM
40 | COC(=O)C1=C(CN2CCCC2)NC(c2ccccn2)=NC1c1ccc(F)cc1Cl (stereo not shown) [Compound B-35] | 87 | –
41 | COC(=O)C1=C(C)NC(c2ccccn2)=NC1c1ccc(F)cc1Br (stereo not shown) [Compound B-18] | 93 | –
